# Reference: the supplement of paper PMC10307832
# Tests used:
# Assay in all cases: relative viability (nuclei count vs DMSO), 5 days (fraction); higher = more cells survive
# [1] = compound: CN1CCC(CC1)OC2=CC(=C(C=C2)NC3=NC=C4C(=N3)N(C(=O)N4C)C5CCCC5)OC [AZ3146] + CC(=O)c1c(C)c2cnc(Nc3ccc(N4CCNCC4)cn3)nc2n(C2CCCC2)c1=O [Palbociclib] (partner 0.5 µM)
# Summary of the method: (§1)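 For relative viability, nuclei counts in treated wells were divided by those in vehicle wells. Lung cancer cell lines had been pin-tool dosed in 1536-well plates the day after seeding and cultured for 5 days, then fixed and stained in one step (final 0.05% Triton X-100, 1% formaldehyde, 1 ug/ml Hoechst) and imaged at 4×. Doses were one drug alone or a fixed anchor-drug dose plus five library-drug doses (not always all listed) in √10 steps, and values are duplicate-plate medians.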
# [2] = compound: CN1CCC(CC1)OC2=CC(=C(C=C2)NC3=NC=C4C(=N3)N(C(=O)N4C)C5CCCC5)OC [AZ3146] + O=C(c1cc(Cc2n[nH]c(=O)c3ccccc23)ccc1F)N1CCN(C(=O)C2CC2)CC1 [Olaparib] (partner 8 µM)
# Summary of the method: as §1
# [3] = compound: CCOC(=O)CCNc1cc(N2CCc3ccccc3CC2)nc(-c2ccccn2)n1 [GSK-J4] + Cc1cc(Nc2cc(N3CCN(C)CC3)nc(Sc3ccc(NC(=O)C4CC4)cc3)n2)n[nH]1 [Tozasertib] (partner 0.1 µM)
# Summary of the method: as §1
# [4] = compound: CN1CCC(CC1)OC2=CC(=C(C=C2)NC3=NC=C4C(=N3)N(C(=O)N4C)C5CCCC5)OC [AZ3146] + CS(=O)(=O)CCNCc1ccc(-c2ccc3ncnc(Nc4ccc(OCc5cccc(F)c5)c(Cl)c4)c3c2)o1 [Lapatinib] (partner 2 µM)
# Summary of the method: as §1
cell line,measurement,setting,value
UMC-11,relative viability,[1]; first compound 0.08 µM,0.267
same,relative viability,[1]; first compound 0.253 µM,0.342
same,relative viability,[1]; first compound 0.8 µM,0.335
same,relative viability,[1]; first compound 2.53 µM,0.303
same,relative viability,[1]; first compound 8 µM,0.306
same,relative viability,[2]; first compound 0.08 µM,0.396
same,relative viability,[2]; first compound 0.253 µM,0.405
same,relative viability,[2]; first compound 0.8 µM,0.36
same,relative viability,[2]; first compound 2.53 µM,0.326
same,relative viability,[2]; first compound 8 µM,0.279
same,relative viability,[3]; first compound 0.5 µM,0.189
same,relative viability,[3]; first compound 15.81 µM,0.176
same,relative viability,[3]; first compound 50 µM,0.17
same,relative viability,[4]; first compound 0.08 µM,0.793
same,relative viability,[4]; first compound 0.253 µM,0.963
same,relative viability,[4]; first compound 0.8 µM,0.99
same,relative viability,[4]; first compound 2.53 µM,0.978
same,relative viability,[4]; first compound 8 µM,0.531
